Data taken from patent US20030036531A1, “Use of lysophospholipids to inhibit mammalian phospholipase D” (Wisconsin Alumni Research Foundation, priority 2001, published 2003).
pIC50: −log10 of the molar value.

Assays:
[1] = biological target: T1, partially purified PLD from rat brain membrane (Rattus norvegicus, UniProt P70496); assay: Measurement of PLD activity (partially purified rat brain PLD, 14C-PC substrate, TLC); type: biochemical; conditions: for PLD activity, % of the control: 10 μM compound, standard mixture with 4.8 μM PIP2, 100 nM Arf, 5 μM GTPγS; for Km for PLD in the presence of inhibitor: Km without inhibitor 33.3 μM PC; for Vmax in the presence of inhibitor: Vmax without inhibitor 166.7 pmol/h, Lineweaver-Burk; for pIC50: FIG. 2, read-out: Half-maximal inhibition of PLD activity
T1 construct: The activity of partially purified PLD from rat brain membrane was assayed; tissue Dr. Sue Goo Rhee (National Institutes of Health, Bethesda, Md.); host or cells: rat brain membranes
T1 sequence (P70496 1-1074): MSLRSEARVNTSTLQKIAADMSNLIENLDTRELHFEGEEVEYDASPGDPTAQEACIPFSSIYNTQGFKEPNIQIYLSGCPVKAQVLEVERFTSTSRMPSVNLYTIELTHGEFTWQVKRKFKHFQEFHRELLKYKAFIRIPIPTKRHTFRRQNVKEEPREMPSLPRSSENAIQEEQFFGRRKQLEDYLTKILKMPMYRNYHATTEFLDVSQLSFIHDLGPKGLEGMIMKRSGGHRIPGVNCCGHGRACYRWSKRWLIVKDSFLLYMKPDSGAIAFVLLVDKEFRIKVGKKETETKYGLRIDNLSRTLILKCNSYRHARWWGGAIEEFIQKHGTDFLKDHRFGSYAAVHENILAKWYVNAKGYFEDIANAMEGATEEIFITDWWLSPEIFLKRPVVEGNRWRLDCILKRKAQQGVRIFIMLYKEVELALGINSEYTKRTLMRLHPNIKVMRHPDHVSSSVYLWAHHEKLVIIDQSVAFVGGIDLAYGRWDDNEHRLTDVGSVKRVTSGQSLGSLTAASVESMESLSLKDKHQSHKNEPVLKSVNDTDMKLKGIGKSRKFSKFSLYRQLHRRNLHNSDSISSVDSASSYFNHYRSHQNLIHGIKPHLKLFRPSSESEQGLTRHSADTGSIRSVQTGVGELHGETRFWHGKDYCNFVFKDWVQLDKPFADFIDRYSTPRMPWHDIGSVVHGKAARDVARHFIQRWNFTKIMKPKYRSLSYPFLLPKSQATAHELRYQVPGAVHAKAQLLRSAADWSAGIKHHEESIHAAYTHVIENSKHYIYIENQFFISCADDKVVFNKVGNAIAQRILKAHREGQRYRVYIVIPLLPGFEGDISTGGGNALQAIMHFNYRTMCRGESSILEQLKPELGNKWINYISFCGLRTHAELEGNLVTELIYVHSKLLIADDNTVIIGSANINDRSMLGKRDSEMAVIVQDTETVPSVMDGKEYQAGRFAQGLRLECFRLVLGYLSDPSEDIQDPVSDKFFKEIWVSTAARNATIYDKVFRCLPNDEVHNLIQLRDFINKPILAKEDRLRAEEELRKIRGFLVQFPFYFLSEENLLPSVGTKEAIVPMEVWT

[2] = tested on: human prostate cancer cell line PC-3; assay: PC-3 cell growth (cell viability after trypan blue staining); type: cell-based
Experimental: The influence of lysophospholipids on the inhibition of cancer cell growth was investigated. For this purpose, human prostate cancer cell line PC-3 was used. PC-3 cells were cultured using standard RPMI 1640 medium supplemented with 5% fetal bovine serum (FBS). The composition of RPMI 1640 included inorganic salts, glucose, amino acids and vitamins (see Rajesh, D., et al., Molecular Pharmacology 56:515-525 (1999) for details). PC-3 cells were cultured in the presence of various presence of various phospholipids. At appropriate times after treatment the cells were treated by trypsin EDTA treatment, washed twice in an ice cold buffer and analyzed for cell viability after staining with trypan blue (Sawicki, W., et al., Stain Technology 42:143 (1967)).

[3] = tested on: PLD activity in PC-3 cells; conditions: cited from earlier work
PLD from plant tissues = conditions: cited from earlier work
rat brain PLD = biological target: T2, rat brain PLD (Rattus norvegicus, UniProt P70496); assay: Binding of lysophospholipids to PLD (vesicle precipitation assay followed by immunoblot); conditions: 1 mM vesicles, 1,500 fold excess BSA
T2 construct: 200 ng of rat brain PLD; tissue Dr. Sue Goo Rhee (National Institutes of Health, Bethesda, Md.); host or cells: rat brain membranes
T2 sequence (P70496 1-1074): T1 sequence (P70496 1-1074)
Experimental: The binding ability of lysophospholipids to PLD was estimated by precipitation assay followed by immunoblot. The final assay volume was 0.3 ml containing 50 mM Hepes (pH 7.5), 3 mM EGTA, 80 mM KCl, 2.5 MM MgCl2, 2 mM CaCl2, 1% ethanol, 5 μM GTPγS, 33 nM myristoylated Arf, 300 μg of BSA, 200 ng of rat brain PLD and 1 mM lysophospholipid or phospholipid vesicles. After incubation at 37° C. for 10 minutes, the mixture was cooled in ice-water for 30 minutes and centrifuged at 17,000×g for 30 minutes at 4° C. The precipitant of lysophospholipid vesicles containing bound PLD in the excess of BSA (1,500 fold than rat PLD) was resuspended in 20 μL PBS (pH 7.5). The bound PLD was separated by 8% SDS-PAGE without reducing agent (2-mercaptoethanol) in sample loading buffer and transferred onto immunoblot membrane. The membrane was blotted with rabbit-PLD antibodies that detect both PLD 1 and PLD 2 isozymes. The PLD-antibody complex was visualized by staining alkaline phosphatase conjugated to a second antibody (Bio-Rad, Hercules, Calif.).

In the case of `O[C@H]1[C@H](O)[C@@H](O)[C@H](O)[C@@H](O)[C@H]1O` [inositol, reference compound], the “inhibition of PLD activity by headgroups” value ([1]; 10 μM) was “None of the headgroups such as choline, glycerol, inositol, or serine significantly inhibited PLD activity”.

`CCCCCCCC/C=C\CCCCCCCC(=O)O` [oleate, reference compound] gave an inhibition at 20 µM ([1]; 20 μM) of 10% and an inhibition at 40 µM ([1]; 40 μM) of 20%.

For `C=C(C)[C@@H]1CC=C(CO)CC1` [perillyl alcohol, reference compound], the “inhibition of PC-3 cell growth compared to LPI (FIG. 10)” value ([2]; 1 mM) was “not as strong inhibitor of PC-3 cell growth as compared to LPI”.

In the case of `N[C@@H](CO)C(=O)O` [serine, reference compound], the “inhibition of PLD activity by headgroups” value ([1]; 10 μM) was “None of the headgroups such as choline, glycerol, inositol, or serine significantly inhibited PLD activity”.

With Triton X-100 [reference compound] the “stimulatory effect on PLD activity” value ([1]; 10 μM) was 6-9%.

In the case of eLPE [reference compound], the “effect on rat brain PLD activity” value ([1]; 10 μM (FIG. 1)) was “not inhibited but rather slightly stimulated”.

For “lysophosphatidic acid [reference compound]”, the “stimulation of rat brain PLD” value ([1]; 10 and 20 μM, assay contains Arf and PIP2) is given as “not stimulated” and the “effect on PLD activity in PC-3 cells” value [3] is given as “stimulate PLD activity”.

In the case of “lysophosphatidylcholine [LPC, reference compound]”, the “retardation of PC-3 cell growth (FIG. 8)” value [2] is listed as “able to retard the growth of PC-3 cells”, the “inhibition of activity of PLD from plant tissues” value (“inhibition of activity of PLD” for short) (PLD from plant tissues) is listed as “not significantly inhibited” and the “PLD activity, % of the control” value [1] is listed as 61.0%.

For lysophosphatidylglycerol [LPG], the “retardation of PC-3 cell growth (FIG. 8)” value [2] is listed as “able to retard the growth of PC-3 cells”, the “inhibition of activity of PLD” value (PLD from plant tissues) is listed as “not significantly inhibited” and the “PLD activity, % of the control” value [1] is listed as 24.9%.

In the case of lysophosphatidylinositol [LPI], the “inhibition of PC-3 cell growth, lyso form vs phospholipid and inositol (FIG. 7)” value [2] was “able to inhibit the PC-3 cell growth”, the “retardation of PC-3 cell growth (FIG. 8)” value [2] was “able to retard the growth of PC-3 cells” and the “inhibition of PC-3 cell growth, concentration dependence (FIG. 9)” value ([2]; 100 μM) was “very inhibitory”. The “co-precipitation of PLD proteins with lipid vesicles” value (rat brain PLD) was “co-precipitated”, the “inhibition of PLD activity” value ([1]; 160 nM) was 19% and the “inhibition of PLD activity” value ([1]; 640 nM) was 27%. The “PLD activity, % of the control, in the absence of Arf” value ([1]; 4 μM inhibitor, no Arf (no Arf alone: 72%)) was 33%, the “Km for PLD in the presence of inhibitor” value ([1]; 4 μM inhibitor) was “did not change” and the “Vmax in the presence of inhibitor” value ([1]; 4 μM inhibitor) was 76.9 pmol/h. For the same compound, the “PLD activity, % of the control” value [1] was 23.3%, the “change of PLD activity by addition of myristoylated Arf in presence of inhibitor” value ([1]; 15 μM inhibitor) was “not significantly changed” and the pIC50 [1] was 5.52. For the same compound, the “PLD inhibition when PIP2 concentration tripled” value ([1]; LPI 4 μM, LPS 12 μM, PIP2 4.8 vs 14.4 μM) was “not significantly changed”.

In the case of lysophosphatidylserine [LPS], the “inhibition of activity of PLD” value (PLD from plant tissues) is listed as “not significantly inhibited”, the “Km for PLD in the presence of inhibitor” value ([1]; 4 μM inhibitor) is listed as “did not change” and the “Vmax in the presence of inhibitor” value ([1]; 4 μM inhibitor) is listed as 121.5 pmol/h. The “PLD activity, % of the control” value [1] was 30.3% and the pIC50 [1] was 5.22.
